Reference: the supplement of paper PMC10307832

Experiments:
Experiment in all cases: relative viability (nuclei count vs DMSO), 5 days (fraction); higher = more cells survive
[1] = compound: O=S(=O)(c1ccccc1)N(CC(F)(F)F)c1ccc(C(O)(C(F)(F)F)C(F)(F)F)cc1 + CC(=O)c1c(C)c2cnc(Nc3ccc(N4CCNCC4)cn3)nc2n(C2CCCC2)c1=O [Palbociclib] (partner 0.5 µM)
Outline: (§1)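 Lung cancer cell lines were seeded in 1536-well plates and dosed by pin tool the next day, with either a single drug or a fixed anchor-drug dose combined with five library-drug doses (not always all listed) spaced in √10 steps. Five days later, one step fixed the cells and stained their nuclei (final 0.05% Triton X-100, 1% formaldehyde, 1 ug/ml Hoechst), and nuclei were counted on 4× images. Relative viability is the nuclei count in treated wells divided by the count in vehicle wells, and each value is the median of duplicate plates.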

[2] = compound: O=S(=O)(c1ccccc1)N(CC(F)(F)F)c1ccc(C(O)(C(F)(F)F)C(F)(F)F)cc1 + Cc1nc(NC(=O)N2CCC[C@H]2C(N)=O)sc1-c1ccnc(C(C)(C)C(F)(F)F)c1 [Alpelisib] (partner 2 µM)
Outline: as §1

[3] = compound: C1=CC2=C(C=CC(=C2)C=C3C(=O)NC(=NCC4=CC=CS4)S3)N=C1 [RO-3306] + Cc1nc(NC(=O)N2CCC[C@H]2C(N)=O)sc1-c1ccnc(C(C)(C)C(F)(F)F)c1 [Alpelisib] (partner 2 µM)
Outline: as §1

[4] = compound: C1=CC2=C(C=CC(=C2)C=C3C(=O)NC(=NCC4=CC=CS4)S3)N=C1 [RO-3306] + CC(=O)c1c(C)c2cnc(Nc3ccc(N4CCNCC4)cn3)nc2n(C2CCCC2)c1=O [Palbociclib] (partner 0.5 µM)
Outline: as §1

Cell Line	relative viability ([1]; first compound 0.8 µM)	relative viability ([1]; first compound 2.53 µM)	relative viability ([1]; first compound 8 µM)	relative viability ([2]; first compound 0.8 µM)	relative viability ([2]; first compound 2.53 µM)	relative viability ([2]; first compound 8 µM)	relative viability ([3]; first compound 0.01 µM)	relative viability ([3]; first compound 0.1 µM)	relative viability ([3]; first compound 0.3162 µM)	relative viability ([3]; first compound 1 µM)	relative viability ([4]; first compound 0.01 µM)	relative viability ([4]; first compound 0.03162 µM)	relative viability ([4]; first compound 0.1 µM)	relative viability ([4]; first compound 0.3162 µM)	relative viability ([4]; first compound 1 µM)	relative viability ([3]; first compound 0.03162 µM)
SW 1573	0.449	0.323	0.356	0.889	0.697	0.757	0.701	0.848	0.832	0.905	0.445	0.399	0.377	0.316	0.369	–
NCI-H322M	0.503	0.497	0.51	0.794	0.792	0.73	0.8	0.707	0.888	0.827	0.472	0.469	0.502	0.433	0.478	0.7
NCI-H1793	0.258	0.22	0.258	0.585	0.491	0.578	0.686	0.739	0.59	0.565	0.222	–	0.279	0.296	0.388	0.577
EKVX	0.401	0.341	0.324	0.892	0.803	0.955	0.958	0.841	1.02	0.83	0.346	0.37	0.332	0.447	0.393	0.833
NCI-H1355	0.377	0.42	0.359	0.861	0.727	0.715	1	0.872	0.969	0.822	0.421	0.406	0.405	0.412	0.38	0.709
CAL-12T	0.318	0.33	0.412	1.52	1.13	1.02	1.38	1.17	1.19	1.37	0.67	0.396	0.385	0.388	0.475	1.26
NCI-H2085	0.432	0.431	0.413	0.982	0.885	0.969	1.07	0.922	0.968	0.952	0.448	0.48	0.506	0.446	0.471	0.926
LOU-NH91	0.524	0.527	0.561	0.654	0.721	0.74	0.7	0.764	0.708	0.671	0.538	0.547	0.542	0.526	0.53	0.705
NCI-H1975	0.71	0.567	0.644	0.616	0.581	0.594	0.882	0.615	0.675	0.67	0.614	0.453	0.581	0.549	0.553	0.507
NCI-H23	0.484	0.526	0.478	0.905	0.818	0.618	0.729	0.573	0.69	0.517	0.513	–	0.46	0.472	0.454	0.685
